The supplement of paper PMC9673313

Each test system was assayed with Clc1ccc2c(N3CCN(CCCN4CCN(c5ccnc6cc(Cl)ccc56)CC4)CC3)ccnc2c1 [piperaquine].
Procedure: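 Kenyan Plasmodium falciparum field isolates (2008-2021) were tested in a SYBR Green I growth-inhibition assay, either immediately ex vivo (fresh samples) or in vitro after culture adaptation. Cultures were at 1% parasitemia and 2% hematocrit, incubated with serial drug dilutions for 72 h at 37 °C (5% O2, 5% CO2), then read by fluorescence. IC50 was fitted by non-linear regression of the dose-response curve.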
KSI 14/03/507 was tested, and the IC50 growth inhibition was 6.69 ng/mL.
Work on KSI 14/04/534 yielded an IC50 growth inhibition of 1.27 ng/mL.
For KSI 14/08/627, the IC50 growth inhibition was 4.19 ng/mL.
KSI 15/04/730 was tested, and the IC50 growth inhibition was 5.13 ng/mL.
In the case of KSI 15/04/732, the IC50 growth inhibition is reported as 6.1 ng/mL.
For KSI 15/04/743, the IC50 growth inhibition was 1.75 ng/mL.
KSI 15/06/782 showed an IC50 growth inhibition of 25.5 ng/mL.
With KSI 15/06/786 the IC50 growth inhibition was 14.6 ng/mL.
Test System KSI 15/08/809 has an IC50 growth inhibition of 7.78 ng/mL.
KSI 15/09/825 gave an IC50 growth inhibition of 12.1 ng/mL.
In the case of KSI 15/10/831, the IC50 growth inhibition is reported as 25.1 ng/mL.
KSI 16/06/900 gave an IC50 growth inhibition of 33.3 ng/mL.
Work on KSI 16/07/906 yielded an IC50 growth inhibition of 38 ng/mL.
KSI 16/07/907 showed an IC50 growth inhibition of 11.6 ng/mL.
Test System KSI 16/07/908 has an IC50 growth inhibition of 5.24 ng/mL.
KSI 16/07/912 gave an IC50 growth inhibition of 15.1 ng/mL.
For KSI 16/08/916, the IC50 growth inhibition was 14.8 ng/mL.
KSI 17/10/920 gave an IC50 growth inhibition of 4.71 ng/mL.
Test System KSI 18/09/0004 has an IC50 growth inhibition of 8.35 ng/mL.
KSI 18/09/0006 gave an IC50 growth inhibition of 6.86 ng/mL.
KSI 19/06/0027 showed an IC50 growth inhibition of 3.54 ng/mL.
For KSI 19/06/0032, the IC50 growth inhibition was 28.1 ng/mL.
In the case of KSI 19/12/0048, the IC50 growth inhibition is reported as 35.3 ng/mL.
Work on KSI 21/04/0059 yielded an IC50 growth inhibition of 208 ng/mL.
In the case of KSI 21/04/0062, the IC50 growth inhibition is reported as 10.2 ng/mL.
For KSI 21/04/0063, the IC50 growth inhibition was 3 ng/mL.
With MDH 10/8/0014 the IC50 growth inhibition was 1.39 ng/mL.
Test System MDH 10/10/0020 has an IC50 growth inhibition of 16.8 ng/mL.
MDH 11/12/0052 gave an IC50 growth inhibition of 4.17 ng/mL.
MDH 12/01/0062 showed an IC50 growth inhibition of 19 ng/mL.
In the case of MDH 12/01/0063, the IC50 growth inhibition is reported as 12 ng/mL.
For MDH 12/01/0067, the IC50 growth inhibition was 10.7 ng/mL.
For MDH 13/08/145, the IC50 growth inhibition was 24.8 ng/mL.
Test System MDH 16/05/150 has an IC50 growth inhibition of 1.67 ng/mL.
MDH 16/08/153 was tested, and the IC50 growth inhibition was 7.62 ng/mL.
MDH 18/08/003 was tested, and the IC50 growth inhibition was 3.81 ng/mL.
Test System MDH 18/08/004 has an IC50 growth inhibition of 0.851 ng/mL.
For MDH 18/09/0008, the IC50 growth inhibition was 3.25 ng/mL.
MDH 19/01/0029 was tested, and the IC50 growth inhibition was 9.67 ng/mL.
Test System MDH 19/01/0031 has an IC50 growth inhibition of 26.2 ng/mL.
Test System MDH 19/12/0045 has an IC50 growth inhibition of 30.2 ng/mL.
MGT16/01/118 was tested, and the IC50 growth inhibition was 3.04 ng/mL.
Test System MGT 13/11/0003 has an IC50 growth inhibition of 22.9 ng/mL.
Work on MGT 14/03/0007 yielded an IC50 growth inhibition of 6.4 ng/mL.
MGT 14/03/0008 showed an IC50 growth inhibition of 27.2 ng/mL.
MGT 14/03/0009 gave an IC50 growth inhibition of 62.4 ng/mL.
Work on MGT 14/03/0012 yielded an IC50 growth inhibition of 8.31 ng/mL.
In the case of MGT 14/03/0015, the IC50 growth inhibition is reported as 7.79 ng/mL.
With MGT 14/07/0033 the IC50 growth inhibition was 3.35 ng/mL.
MGT 14/08/034 was tested, and the IC50 growth inhibition was 29.5 ng/mL.
Work on MGT 15/06/0090 yielded an IC50 growth inhibition of 34.3 ng/mL.
In the case of MGT 15/10/104, the IC50 growth inhibition is reported as 3.35 ng/mL.
MGT 15/10/105 showed an IC50 growth inhibition of 19.7 ng/mL.
For MGT 17/11/133, the IC50 growth inhibition was 3.35 ng/mL.
With MGT 18/08/0004 the IC50 growth inhibition was 1.64 ng/mL.
With MGT 18/09/0013 the IC50 growth inhibition was 3.48 ng/mL.
MGT 19/09/0054 gave an IC50 growth inhibition of 32.6 ng/mL.
MGT 19/09/0057 showed an IC50 growth inhibition of 29.7 ng/mL.
MGT 19/11/0063 was tested, and the IC50 growth inhibition was 13.6 ng/mL.
MGT 21/03/0108 gave an IC50 growth inhibition of 7.8 ng/mL.
Test System MGT 21/05/115 has an IC50 growth inhibition of 6.2 ng/mL.
Work on MGT 21/05/0116 yielded an IC50 growth inhibition of 4.6 ng/mL.
MGT 21/08/0109 gave an IC50 growth inhibition of 0.4 ng/mL.
MGT 21/08/0119 was tested, and the IC50 growth inhibition was 89.6 ng/mL.
In the case of MGT 21/08/0122, the IC50 growth inhibition is reported as 87.2 ng/mL.
